Source: patent US20240415819A1, “MACROCYCLIC COMPOUNDS AS PROTEASOME SUBUNIT BETA TYPE-5 INHIBITORS” (Lead Discovery Center GmbH, priority 2021, published 2024)

How the values were obtained:
[1] = tested on: A549 (human lung carcinoma cell line); test: Glo assay of A549 cells (Table 3; ProteasomeGlo plating scheme); type: cell-based; settings: Homo sapiens; A549 cells; read-out: PGLo A549
Outline: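 IC50 values (nM) come from a cell-based chymotrypsin-like Proteasome-Glo luminescence assay. Compound exposure ran 105 min at 37° C.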

[2] = molecular target: T1, β5 subunit of the human immunoproteasome (IPS) (Homo sapiens, UniProt P28062); test: β5 inhibition assay, human immunoproteasome (Suc-LLVY-AMC); type: biochemical; settings: IC50 class, Suc-LLVY-AMC substrate
T1 construct: purchased Boston Biochem E-370
Outline: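 Human immunoproteasome (1 nM final) was preincubated 10 min at RT with compound in 100 mM HEPES pH 7.5, 50 mM NaCl, 0.02% SDS, 1 mM DTT. Suc-LLVY-AMC (22.6 μM final) was then added for 4 h at RT in the dark. After stopping with 1 μM bortezomib, AMC fluorescence was read (ex 355/em 460 nm).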

Cc1ccc2cc1CNC(=O)[C@H](CCc1ccccc1)NC(=O)[C@@H](NC(=O)C(C)(C)CO)CC(=O)N1CCCC(CCO2)C1 (stereo partly drawn) [Compound 284, 3-hydroxy-2,2-dimethyl-N-((9S,12S)-5^4-methyl-8,11,14-trioxo-9-phenethyl-4-oxa-7,10-diaza-1(3,1)-piperidina-5(1,3)-benzenacyclotetradecaphane-12-yl)propanamide]
IC50 [1]: 100 to 500 nM | IC50 [2]: < 100 nM

CCC(CC)(CO)C(=O)N[C@H]1CC(=O)N2CCCC(CCOc3ccc(C)c(c3)CNC(=O)[C@H](CCc3ccccc3)NC1=O)C2 (stereo partly drawn) [Compound 285, 2-ethyl-2-(hydroxymethyl)-N-((9S,12S)-5^4-methyl-8,11,14-trioxo-9-phenethyl-4-oxa-7,10-diaza-1(3,1)-piperidina-5(1,3)-benzenacyclotetradecaphane-12-yl)butanamide]
IC50 [1]: 100 to 500 nM | IC50 [2]: < 100 nM

Cc1ccc2cc1CNC(=O)[C@H](CCc1ccccc1)NC(=O)[C@@H](NC(=O)C(C)(CO)CO)CC(=O)N1CCCC(CCO2)C1 (stereo partly drawn) [Compound 286, 3-hydroxy-2-(hydroxymethyl)-2-methyl-N-((9S,12S)-5^4-methyl-8,11,14-trioxo-9-phenethyl-4-oxa-7,10-diaza-1(3,1)-piperidina-5(1,3)-benzenacyclotetradecaphane-12-yl)propanamide]
IC50 [1]: 100 to 500 nM | IC50 [2]: < 100 nM

Cc1ccc2cc1CNC(=O)[C@H](CCc1ccccc1)NC(=O)[C@@H](NC(=O)C1(C)COC1)CC(=O)N1CCCC(CCO2)C1 (stereo partly drawn) [Compound 287, 3-methyl-N-((9S,12S)-5^4-methyl-8,11,14-trioxo-9-phenethyl-4-oxa-7,10-diaza-1(3,1)-piperidina-5(1,3)-benzenacyclotetradecaphane-12-yl)oxetane-3-carboxamide]
IC50 [1]: < 100 nM | IC50 [2]: < 100 nM

Cc1ccc2cc1CNC(=O)[C@H](CCc1ccccc1)NC(=O)[C@@H](NC(=O)C1(C)CCOCC1)CC(=O)N1CCCC(CCO2)C1 (stereo partly drawn) [Compound 288, 4-methyl-N-((9S,12S)-5^4-methyl-8,11,14-trioxo-9-phenethyl-4-oxa-7,10-diaza-1(3,1)-piperidina-5(1,3)-benzenacyclotetradecaphane-12-yl)tetrahydro-2H-pyran-4-carboxamide]
IC50 [1]: 100 to 500 nM | IC50 [2]: < 100 nM

Cc1ccc2cc1CNC(=O)[C@@H](CCc1ccccc1)NC(=O)[C@@H](NC(=O)OCc1ccccc1)CC(=O)N1CCC[C@H](CCO2)C1 [Compound 289, benzyl ((13R,9R,12S)-5^4-methyl-8,11,14-trioxo-9-phenethyl-4-oxa-7,10-diaza-1(3,1)-piperidina-5(1,3)-benzenacyclotetradecaphane-12-yl)carbamate]
IC50 [1]: 500 to 1000 nM | IC50 [2]: 100 to 500 nM

Cc1ccc2cc1CNC(=O)[C@@H](CCc1ccccc1)NC(=O)[C@H](NC(=O)OCc1ccccc1)CC(=O)N1CCC[C@H](CCO2)C1 [Compound 290, benzyl ((13R,9R,12R)-5^4-methyl-8,11,14-trioxo-9-phenethyl-4-oxa-7,10-diaza-1(3,1)-piperidina-5(1,3)-benzenacyclotetradecaphane-12-yl)carbamate]
IC50 [1]: > 5000 nM | IC50 [2]: 500 to 1000 nM

Cc1ccc2cc1CNC(=O)[C@H](CCc1ccccc1)NC(=O)[C@@H](NC(=O)C(C)(C)C#N)CC(=O)N1CCCC(CCO2)C1 (stereo partly drawn) [Compound 294, 2-cyano-2-methyl-N-((9S,12S)-54-methyl-8,11,14-trioxo-9-phenethyl-4-oxa-7,10-diaza-1(3,1)-piperidina-5(1,3)-benzenacyclotetradecaphane-12-yl)propanamide]
IC50 [1]: < 100 nM | IC50 [2]: < 100 nM

CC(=O)N[C@H]1CC(=O)N2CCCC(CCOc3ccc(C)c(c3)CNC(=O)C(CCc3cnccn3)NC1=O)C2 (stereo partly drawn) [Compound 564, N-((12S)-5^4-methyl-8,11,14-trioxo-9-(2-(pyrazin-2-yl)ethyl)-4-oxa-7,10-diaza-1(3,1)-piperidina-5(1,3)-benzenacyclotetradecaphane-12-yl)acetamide]
IC50 [1]: < 100 nM | IC50 [2]: < 100 nM

CC(=O)N[C@H]1CC(=O)N2CCCC(CCOc3ccc(C)c(c3)CNC(=O)C(c3cnn(CCCC(=O)O)c3)NC1=O)C2 (stereo partly drawn) [Compound 568, 4-(4-((12S)-12-acetamido-5^4-methyl-8,11,14-trioxo-4-oxa-7,10-diaza-1(3,1)-piperidina-5(1,3)-benzenacyclotetradecaphane-9-yl)-1H-pyrazol-1-yl)butanoic acid]
IC50 [1]: < 100 nM | IC50 [2]: < 100 nM

CC(=O)N[C@H]1CC(=O)N2CCCC(CCOc3ccc(C)c(c3)CNC(=O)C(c3cnn(CCCS(=O)(=O)O)c3)NC1=O)C2 (stereo partly drawn) [Compound 571, 3-(4-((12S)-12-acetamido-5^4-methyl-8,11,14-trioxo-4-oxa-7,10-diaza-1(3,1)-piperidina-5(1,3)-benzenacyclotetradecaphane-9-yl)-1H-pyrazol-1-yl)propane-1-sulfonic acid]
IC50 [1]: < 100 nM | IC50 [2]: < 100 nM
